Laboratory results as given in ChEMBL document CHEMBL3797035 (Bioorg Med Chem, 2016).

How the values were obtained:
[1] = target: Beta-1 adrenergic receptor (Mus musculus, UniProt P34971); assay: Displacement of [3H]CGP12177 from mouse beta1 receptor expressed in HEK293 cells; assay type: cell-based
[2] = target: T1, Beta-2 adrenergic receptor (Homo sapiens, UniProt P07550); assay: Displacement of [3H]CGP12177 from human beta2 receptor expressed in CHO cells; assay type: cell-based
D(1A) dopamine receptor = D(1A) dopamine receptor (Homo sapiens, UniProt P21728); assay: Displacement of [3H]SCH23390 from human D1 receptor expressed in HEK293 cells; assay type: cell-based
Sequence of D(1A) dopamine receptor (P21728 whole entry): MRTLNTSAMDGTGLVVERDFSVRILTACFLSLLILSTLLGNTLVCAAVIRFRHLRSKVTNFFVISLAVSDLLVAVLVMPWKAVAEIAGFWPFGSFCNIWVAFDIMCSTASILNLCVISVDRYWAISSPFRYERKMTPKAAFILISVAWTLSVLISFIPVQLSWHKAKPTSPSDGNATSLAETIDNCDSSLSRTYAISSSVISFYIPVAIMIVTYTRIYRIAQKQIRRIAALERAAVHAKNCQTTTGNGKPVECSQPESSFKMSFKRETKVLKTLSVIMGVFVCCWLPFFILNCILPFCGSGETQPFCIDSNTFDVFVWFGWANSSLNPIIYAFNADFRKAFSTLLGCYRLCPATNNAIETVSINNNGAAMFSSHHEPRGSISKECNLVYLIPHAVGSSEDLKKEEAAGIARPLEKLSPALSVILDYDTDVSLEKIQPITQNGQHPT

D(2) dopamine receptor [3] = target: T2, D(2) dopamine receptor (Homo sapiens, UniProt P14416); assay: Displacement of [3H]spiperone from human D2L receptor expressed in CHO cells; assay type: cell-based
T2 sequence (P14416 whole entry): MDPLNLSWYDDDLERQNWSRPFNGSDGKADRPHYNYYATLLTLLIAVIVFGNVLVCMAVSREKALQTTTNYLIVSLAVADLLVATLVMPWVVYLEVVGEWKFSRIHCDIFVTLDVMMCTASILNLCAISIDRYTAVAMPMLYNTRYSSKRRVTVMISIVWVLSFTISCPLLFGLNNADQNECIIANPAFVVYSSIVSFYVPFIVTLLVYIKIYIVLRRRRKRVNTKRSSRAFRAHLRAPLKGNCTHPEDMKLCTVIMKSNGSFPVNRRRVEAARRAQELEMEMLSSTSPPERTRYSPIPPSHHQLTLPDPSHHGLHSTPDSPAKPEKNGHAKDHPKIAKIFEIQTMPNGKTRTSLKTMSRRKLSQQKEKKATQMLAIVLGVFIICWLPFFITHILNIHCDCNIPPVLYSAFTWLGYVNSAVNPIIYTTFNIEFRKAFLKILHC

D(2) dopamine receptor [4] = target: T2, D(2) dopamine receptor; assay: Displacement of [3H]spiperone from human D2S receptor expressed in CHO cells; assay type: cell-based
D(3) dopamine receptor = D(3) dopamine receptor (Homo sapiens, UniProt P35462); assay: Displacement of [3H]spiperone from human D3 receptor expressed in CHO cells; assay type: cell-based
Sequence of D(3) dopamine receptor (P35462 whole entry): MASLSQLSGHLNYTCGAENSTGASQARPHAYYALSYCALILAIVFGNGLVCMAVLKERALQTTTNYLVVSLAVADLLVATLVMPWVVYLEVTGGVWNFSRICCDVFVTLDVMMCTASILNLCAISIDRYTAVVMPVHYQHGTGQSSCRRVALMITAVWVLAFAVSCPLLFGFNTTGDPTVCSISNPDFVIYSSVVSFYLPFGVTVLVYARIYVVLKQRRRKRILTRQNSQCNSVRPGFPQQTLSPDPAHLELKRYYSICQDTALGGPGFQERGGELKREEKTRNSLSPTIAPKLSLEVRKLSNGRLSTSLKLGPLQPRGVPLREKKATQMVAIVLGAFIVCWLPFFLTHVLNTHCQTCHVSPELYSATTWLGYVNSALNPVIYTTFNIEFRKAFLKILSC

D(4) dopamine receptor = target: T3, D(4) dopamine receptor (Homo sapiens, UniProt P21917); assay: Displacement of [3H]spiperone from human D4.4 receptor expressed in CHO cells; assay type: cell-based
T3 sequence (P21917 whole entry): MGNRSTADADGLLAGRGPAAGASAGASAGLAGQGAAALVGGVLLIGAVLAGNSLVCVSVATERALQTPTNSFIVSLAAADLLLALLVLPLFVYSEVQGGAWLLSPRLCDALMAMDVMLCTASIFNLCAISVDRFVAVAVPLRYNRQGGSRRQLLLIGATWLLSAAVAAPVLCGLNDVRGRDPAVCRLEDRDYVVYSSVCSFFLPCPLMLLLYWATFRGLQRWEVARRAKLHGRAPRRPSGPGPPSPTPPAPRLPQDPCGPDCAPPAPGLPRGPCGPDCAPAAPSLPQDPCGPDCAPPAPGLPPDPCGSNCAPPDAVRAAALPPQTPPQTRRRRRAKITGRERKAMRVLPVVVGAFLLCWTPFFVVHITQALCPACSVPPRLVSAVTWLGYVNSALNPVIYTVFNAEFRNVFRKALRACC

[5] = Displacement of [3H]prazosine from alpha-1 receptor in porcine cortical membranes; assay type: cell membranes, Sus scrofa
[6] = Displacement of [3H]RX821002 from alpha-2 receptor in porcine cortical membranes; assay type: cell membranes, Sus scrofa
D(2) dopamine receptor [7] = target: T2, D(2) dopamine receptor; assay: Agonist activity at human D2S receptor expressed in HEK293 cells cotransfected with Gqi5 protein assessed as [3H]IP3 accumulation after 120 mins by scintillation counting assay in presence of myo-[3H]-inositol; assay type: functional, cell-based
D(2) dopamine receptor [8] = target: T2, D(2) dopamine receptor; assay: Agonist activity at ARMS2-PK-tagged D2S receptor (unknown origin) transfected in HEK293 cells after 5 hrs by beta-arrestin assay; assay type: cell-based
[9] = target: T1, Beta-2 adrenergic receptor; assay: Agonist activity at human beta2 receptor expressed in HEK293 cells cotransfected with Gqs5 protein assessed as [3H]IP3 accumulation after 120 mins by scintillation counting assay in presence of myo-[3H]-inositol; assay type: functional, cell-based
[10] = target: T1, Beta-2 adrenergic receptor; assay: Agonist activity at PK-tagged beta2 receptor (unknown origin) transfected in HEK293 cells after 90 mins by beta-arrestin assay; assay type: cell-based
Homo sapiens = species: Homo sapiens; assay: Selectivity index, ratio of Ki for human D2S receptor to Ki for human beta2 receptor

Sequence of Beta-1 adrenergic receptor (P34971 whole entry): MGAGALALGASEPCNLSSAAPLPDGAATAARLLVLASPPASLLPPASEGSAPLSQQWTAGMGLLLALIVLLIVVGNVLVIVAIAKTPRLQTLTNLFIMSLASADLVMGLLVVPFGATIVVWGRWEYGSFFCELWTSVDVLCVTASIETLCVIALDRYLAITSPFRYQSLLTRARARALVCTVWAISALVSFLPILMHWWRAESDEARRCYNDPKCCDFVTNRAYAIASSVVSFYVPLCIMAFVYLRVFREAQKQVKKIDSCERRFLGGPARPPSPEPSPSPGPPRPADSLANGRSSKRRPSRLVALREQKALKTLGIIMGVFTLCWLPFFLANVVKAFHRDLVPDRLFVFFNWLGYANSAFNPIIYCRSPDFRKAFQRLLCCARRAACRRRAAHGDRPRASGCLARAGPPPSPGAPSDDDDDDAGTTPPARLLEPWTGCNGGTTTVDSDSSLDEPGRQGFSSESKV
T1 sequence (P07550 whole entry): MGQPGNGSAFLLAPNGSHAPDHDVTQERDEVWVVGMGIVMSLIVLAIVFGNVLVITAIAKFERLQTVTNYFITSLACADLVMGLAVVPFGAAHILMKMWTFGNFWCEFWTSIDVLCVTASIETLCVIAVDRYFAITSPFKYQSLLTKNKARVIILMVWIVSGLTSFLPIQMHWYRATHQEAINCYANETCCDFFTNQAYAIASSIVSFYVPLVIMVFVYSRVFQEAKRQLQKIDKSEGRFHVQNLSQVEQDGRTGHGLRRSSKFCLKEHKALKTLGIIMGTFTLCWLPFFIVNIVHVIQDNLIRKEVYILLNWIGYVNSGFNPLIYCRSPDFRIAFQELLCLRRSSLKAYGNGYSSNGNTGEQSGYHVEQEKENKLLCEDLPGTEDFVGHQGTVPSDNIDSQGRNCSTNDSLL

Ki [1] [nM] | Ki [2] [nM] | Ki (D(1A) dopamine receptor) [nM] | Ki (D(2) dopamine receptor [3]) [nM] | Ki (D(2) dopamine receptor [4]) [nM] | Ki (D(3) dopamine receptor) [nM] | Ki (D(4) dopamine receptor) [nM] | Ki [5] [nM] | Ki [6] [nM] | EC50 (D(2) dopamine receptor [7]) [nM] | EC50 (D(2) dopamine receptor [8]) [nM] | EC50 [9] [nM] | EC50 [10] [nM] | Ratio Ki (Homo sapiens) | Structure (SMILES)
79 | 2.8 | 960 | 12 | 17 | 3.5 | 55 | 120 | 270 | 2.6 | 1100 | – | – | – | COc1cc(CCNCCc2ccc(O)c3c2OCC(=O)N3)ccc1OCCCc1ccccc1
– | – | – | – | 1300 | – | – | – | – | – | – | – | – | – | NC[C@H](O)c1ccc(O)c(O)c1 [NOREPINEPHRINE]
– | – | – | – | 910 | – | – | – | – | – | – | – | – | – | CNC[C@H](O)c1ccc(O)c(O)c1 [EPINEPHRINE]
150 | 6.3 | 2800 | 64 | 160 | 18 | 900 | 920 | 13000 | 17 | 240 | – | – | – | COc1cc(CCNCCc2ccc(O)c3[nH]c(=O)ccc23)ccc1OCCCc1ccccc1
– | – | – | – | 32000 | – | – | – | – | – | – | – | – | – | OCc1cc(C(O)CNCCCCCCOCCCCc2ccccc2)ccc1O (centres undefined) [SALMETEROL]
300 | 23 | 6800 | 2900 | 2300 | 790 | 9200 | 1800 | – | – | – | 840 | 510 | – | COc1cc(CCNC[C@@H](O)c2ccc(O)c3[nH]c(=O)ccc23)ccc1OCCCc1ccccc1
– | 100000 | – | – | – | – | – | – | – | – | – | – | – | – | CCCN[C@H]1CCc2nc(N)sc2C1 [PRAMIPEXOLE]
5.1 | 0.25 | 4500 | 130 | 65 | 690 | 1400 | 1900 | 4700 | 98 | 13000 | 7 | 13 | – | COc1cc(CCNC[C@H](O)c2ccc(O)c3c2OCC(=O)N3)ccc1OCCCc1ccccc1
1500 | 850 | 430 | 350 | 200 | 610 | 240 | 19 | 760 | – | – | 1400 | 2200 | – | COc1ccccc1OCCNC[C@@H](O)c1ccc(O)c(O)c1
– | 33 | – | – | 86000 | – | – | – | – | – | – | – | – | 2600 | CCC(NC(C)C)C(O)c1ccc(O)c2[nH]c(=O)ccc12 (centres undefined) [PROCATEROL]
160 | 97 | 890 | 640 | 430 | 2200 | 300 | 50 | 420 | 170 | – | 120 | 210 | – | COc1ccccc1OCCNC[C@H](O)c1ccc(O)c(O)c1
2300 | 53 | 860 | 63 | 120 | 12 | 38 | 400 | 810 | 110 | 2600 | 47000 | – | – | COc1cc(CCNCCc2ccc(O)c(O)c2)ccc1OCCCc1ccccc1
180 | 13 | 2800 | 310 | 96 | 400 | 5400 | 1100 | 2200 | 7.3 | 8800 | 1000 | 580 | – | COc1cc(CCNC[C@@H](O)c2ccc(O)c3c2OCC(=O)N3)ccc1OCCCc1ccccc1
530 | 47 | 2900 | 1900 | 1700 | 660 | 1000 | – | 2500 | – | – | 2600 | 650 | – | COc1cc(CCNC[C@@H](O)c2ccc(O)c(O)c2)ccc1OCCCc1ccccc1
85 | 18 | 430 | 110 | 67 | 62 | 140 | 16 | 1200 | 200 | – | 5100 | 260 | – | COc1cc(CCNC[C@H](O)c2ccc(O)c(O)c2)ccc1OCCCc1ccccc1
– | – | > 50000 | 48000 | 12000 | 4700 | 2900 | 78000 | 5700 | – | – | – | – | – | CC(C)NCC(O)c1ccc(O)c(O)c1 (centres undefined) [ISOPROTERENOL]
– | – | – | – | 26 | – | – | – | – | – | – | – | – | – | COc1ccccc1OCCNC[C@@H](O)COc1cccc2[nH]c3ccccc3c12 [(R)-Carvedilol]
5.8 | 0.48 | 11000 | 5700 | 3200 | 1700 | 3300 | 1400 | – | – | – | 6.2 | 22 | – | COc1cc(CCNC[C@H](O)c2ccc(O)c3[nH]c(=O)ccc23)ccc1OCCCc1ccccc1

Structure (SMILES) | Ki [1] [nM] | Ki [2] [nM] | Ki (D(1A) dopamine receptor) [nM] | Ki (D(2) dopamine receptor [3]) [nM] | Ki (D(2) dopamine receptor [4]) [nM] | Ki (D(3) dopamine receptor) [nM] | Ki (D(4) dopamine receptor) [nM] | Ki [5] [nM] | Ki [6] [nM] | EC50 (D(2) dopamine receptor [7]) [nM] | EC50 (D(2) dopamine receptor [8]) [nM] | EC50 [9] [nM] | EC50 [10] [nM] | Ratio Ki (Homo sapiens)
CCCN(CCC)[C@H]1CCc2c(O)cccc2C1 | – | 40000 | – | – | – | – | – | – | – | – | – | – | – | –
COc1ccccc1OCCNCCc1ccc(O)c(O)c1 | 5000 | 610 | 210 | 85 | 48 | 25 | 4.5 | 4.7 | 390 | 25 | – | 720 | – | –
CCCN(CCC)[C@@H]1CCc2ccc(O)cc2C1 | – | 86000 | – | – | – | – | – | – | – | – | – | – | – | –
CCCN1CCC[C@@H]2Cc3n[nH]cc3C[C@H]21 [QUINPIROLE] | – | 100000 | – | – | – | – | – | – | – | – | – | – | – | –
